The text below walks through data of patent US20230150986A1, “ANTAGONISTS OF THE MUSCARINIC ACETYLCHOLINE RECEPTOR M4” (Vanderbilt University, priority 2019, published 2023).

What is called IC50 is the midpoint of a concentration-inhibition curve.

In the assay the target is T1, Human M4 (Homo sapiens, UniProt P08173).
T1 construct: Human or rat M4 cDNA, along with the chimeric G protein Gq,5, were transfected into Chinese hamster ovary (CHO-K1) cells; expressed in transfected cells; host or cells: CHO-K1 (M4/Gqi5/CHO)
T1 sequence (P08173 1-479): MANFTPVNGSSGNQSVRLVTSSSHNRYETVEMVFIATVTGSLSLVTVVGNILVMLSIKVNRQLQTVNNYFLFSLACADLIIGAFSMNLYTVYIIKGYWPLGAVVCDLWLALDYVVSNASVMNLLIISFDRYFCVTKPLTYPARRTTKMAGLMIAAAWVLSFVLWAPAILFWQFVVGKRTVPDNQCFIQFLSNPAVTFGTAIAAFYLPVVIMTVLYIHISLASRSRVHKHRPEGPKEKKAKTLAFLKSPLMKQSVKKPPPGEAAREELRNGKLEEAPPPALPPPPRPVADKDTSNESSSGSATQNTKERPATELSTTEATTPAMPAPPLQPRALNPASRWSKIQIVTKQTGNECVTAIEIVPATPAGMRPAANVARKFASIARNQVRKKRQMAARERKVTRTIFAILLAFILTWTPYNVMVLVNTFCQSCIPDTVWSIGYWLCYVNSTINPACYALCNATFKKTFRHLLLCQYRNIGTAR
Put plainly: mAChR M4 cell-based functional assay (calcium flux, decrease of EC80 acetylcholine response). The following applies: for Human M4 Emin: % ACh maximum at 30 μM; for IC50: CHO-K1 cells with human M4 and Gqi5, EC80 acetylcholine. The method, then: Human or rat M4 cDNA, along with the chimeric G protein Gq,5, were transfected into Chinese hamster ovary (CHO-K1) cells purchased from the American Type Culture Collection using Lipofectamine2000. M4/Gqi5/CHO cells were grown in Ham's F-12 medium containing 10% heat-inactivated fetal bovine serum (FBS), 20 mM HEPES, 500 μg/mL G^418 sulfate, and 200 μg/mL Hygromycin B.
For high throughput measurement of agonist-evoked increases in intracellular calcium, CHO-K1 cells stably expressing muscarinic receptors were plated in growth medium lacking G418 and hygromycin at 15,000 cells/20 μL/well in Greiner 384-well black-walled, tissue culture (TC)-treated, clear-bottom plates (VWR). Cells were incubated overnight at 37° C. and 5% CO2. The next day, cells were washed using an ELX 405 (BioTek) with assay buffer; the final volume was then aspirated to 20 μL. Next, 20 μL of a 2.3 μM stock of Fluo-4/acetoxymethyl ester (Invitrogen, Carlsbad, Calif.), prepared as a 2.3 mM stock in DMSO and mixed in a 1:1 ratio with 10% (w/v) Pluronic F-127 and diluted in assay buffer, was added to the wells and the cell plates were incubated for 50 min at 37° C. and 5% CO2. Dye was removed by washing with the ELX 405 and the final volume was aspirated to 20 μL. Compound master plates were formatted in a 10 point concentration-response curve (CRC) format (1:3 dilutions) in 100% DMSO with a starting concentration of 10 or 1 mM using a BRAVO liquid handler (Agilent). Test compound CRCs were then transferred to daughter plates (240 nL) using the Echo acoustic plate reformatter (Labcyte, Sunnyvale, Calif.) and then diluted into assay buffer (40 μL) to a 2× stock using a Thermo Fisher Combi (Thermo Fisher Scientific, Waltham, Mass.).
Calcium flux was measured using the Functional Drug Screening System (FDSS) 6000 or 7000 (Hamamatsu Corporation, Tokyo, Japan) as an increase in the fluorescent static ratio. Compounds were applied to cells (20 μL, 2×) using the automated system of the FDSS at 2 seconds into the protocol and the data were collected at 1 Hz. At 143 s, 10 μL of an EC20 concentration of the muscarinic receptor agonist acetylcholine was added (5×), followed by the addition of […] of an EC80 concentration of acetylcholine at the 268 s time point (5×). Agonist activity was analyzed as a concentration-dependent increase in calcium mobilization upon compound addition. Positive allosteric modulator activity was analyzed as a concentration-dependent increase in the EC2o acetylcholine response. Antagonist activity was analyzed as a concentration-dependent decrease in the EC80 acetylcholine response; for the purposes of the tables herein, an IC50 (inhibitory concentration 50) was calculated as a concentration-dependent decrease of the response elicited by an EC80 concentration of acetylcholine. Concentration-response curves were generated using a four-parameter logistical equation in XLFit curve fitting software (IDBS, Bridgewater, N.J.) for Excel (Microsoft, Redmond, Wash.) or Prism (GraphPad Software, Inc., San Diego, Calif.) or the Dotmatics software platform (Dotmatics, Bishop's Stortford, UK).
Compounds were synthesized as described above. Activity (IC50 and Emin) was determined in the mAChR M4 cell-based functional assay as described above and the data are shown in Table 2.
Background: Calcium assays in cells follow changes in intracellular calcium, usually with a dye or a luminescent sensor.

On to `[2H]C([2H])([C@H]1CCCCO1)N1C[C@H]2C[C@H](Nc3ccc(-c4cc(F)cc(F)c4F)nn3)C[C@H]2C1` [Compound 40, (3aR,5s,6aS)-2-(((R)-tetrahydro-2H-pyran-2-yl)methyl-d2)-N-(6-(2,3,5-trifluorophenyl)pyridazin-3-yl)octahydrocyclopenta[c]pyrrol-5-amine], for which the “Human M4 Emin” value is 3% and the IC50 was 1.48 nM.

Turning to `COc1ccc(OCCN2C[C@H]3C[C@H](Nc4ccc(-c5cc(F)cc(F)c5F)nn4)C[C@H]3C2)cc1` [Compound 59, (3aR,5s,6aS)-2-(2-(4-methoxyphenoxy)ethyl)-N-(6-(2,3,5-trifluorophenyl)pyridazin-3-yl)octahydrocyclopenta[c]pyrrol-5-amine], the “Human M4 Emin” value came out at 2% and the IC50 was 60 nM.

Take `Fc1cc(F)c(F)c(-c2ccc(N[C@H]3C[C@@H]4CN(C[C@H]5CCOC5)C[C@@H]4C3)nn2)c1` [Compound 30, (3aR,5s,6aS)-2-(((R)-tetrahydrofuran-3-yl)methyl)-N-(6-(2,3,5-trifluorophenyl)pyridazin-3-yl)octahydrocyclopenta[c]pyrrol-5-amine]: the “Human M4 Emin” value is 2% and the IC50 was determined as 63.2 nM.

On to `Fc1cc(F)c(F)c(-c2ccc(N[C@H]3C[C@@H]4CN(CCC5CCOCC5)C[C@@H]4C3)nn2)c1` [Compound 4, (3aR,5s,6aS)-2-(2-(tetrahydro-2H-pyran-4-yl)ethyl)-N-(6-(2,3,5-trifluorophenyl)pyridazin-3-yl)octahydrocyclopenta[c]pyrrol-5-amine], for which the “Human M4 Emin” value came to 4% and the IC50 turned out to be 3.09 nM.

`Cc1ccc(CN2C[C@H]3C[C@H](Nc4ccc(-c5cc(F)cc(F)c5F)nn4)C[C@H]3C2)nc1` [Compound 18, (3aR,5s,6aS)-2-((5-methylpyridin-2-yl)methyl)-N-(6-(2,3,5-trifluorophenyl)pyridazin-3-yl)octahydrocyclopenta[c]pyrrol-5-amine]: the “Human M4 Emin” value turned out to be 4% and the IC50 came to 24.3 nM.

For `[2H]C([2H])(N1C[C@H]2C[C@H](Nc3ccc(-c4cc(F)cc(F)c4F)nn3)C[C@H]2C1)C1(C)CCCOC1` (stereo partly drawn) [Compound 49, (3aR,5s,6aS)-2-((3-methyltetrahydro-2H-pyran-3-yl)methyl-d2)-N-(6-(2,3,5-trifluorophenyl)pyridazin-3-yl)octahydrocyclopenta[c]pyrrol-5-amine], the “Human M4 Emin” value turned out to be 2% and the IC50 turned out to be 25.8 nM.

Turning to `Fc1ccc(CN2C[C@H]3C[C@H](Nc4ccc(-c5cc(F)cc(F)c5F)nn4)C[C@H]3C2)nc1` [Compound 21, (3aR,5s,6aS)-2-((5-fluoropyridin-2-yl)methyl)-N-(6-(2,3,5-trifluorophenyl)pyridazin-3-yl)octahydrocyclopenta[c]pyrrol-5-amine], the “Human M4 Emin” value is 4% and the IC50 was 36.1 nM.

For `[2H]C([2H])([C@@H]1COCCO1)N1C[C@H]2C[C@H](Nc3ccc(-c4cc(F)cc(F)c4F)nn3)C[C@H]2C1` [Compound 42, (3aR,5s,6aS)-2-(((R)-1,4-dioxan-2-yl)methyl-d2)-N-(6-(2,3,5-trifluorophenyl)pyridazin-3-yl)octahydrocyclopenta[c]pyrrol-5-amine], the “Human M4 Emin” value is 3% and the 50% inhibitory concentration (IC50) is 35 nM.

In the case of `CC(C)(C)CCN1C[C@H]2C[C@H](Nc3ccc(-c4cc(F)cc(F)c4F)nn3)C[C@H]2C1` [Compound 51, (3aR,5s,6aS)-2-(3,3-dimethylbutyl)-N-(6-(2,3,5-trifluorophenyl)pyridazin-3-yl)octahydrocyclopenta[c]pyrrol-5-amine], the “Human M4 Emin” value worked out at 3% and the IC50 came out at 32 nM.

On to `[2H]C([2H])(COC(C)(C)C)N1C[C@H]2C[C@H](Nc3ccc(-c4cc(F)cc(F)c4F)nn3)C[C@H]2C1` [Compound 56, (3aR,5s,6aS)-2-(2-(tert-butoxy)ethyl-1,1-d2)-N-(6-(2,3,5-trifluorophenyl)pyridazin-3-yl)octahydrocyclopenta[c]pyrrol-5-amine], for which the “Human M4 Emin” value was determined as 3% and the IC50 is 3 nM.

With `Fc1cc(F)c(F)c(-c2ccc(N[C@H]3C[C@@H]4CN(CC5CC56CCOCC6)C[C@@H]4C3)nn2)c1` (stereo partly drawn) [Compound 72, (3aR,5s,6aS)-2-((6-oxaspiro[2.5]octan-1-yl)methyl)-N-(6-(2,3,5-trifluorophenyl)pyridazin-3-yl)octahydrocyclopenta[c]pyrrol-5-amine], the “Human M4 Emin” value was found to be 3% and the IC50 amounted to 2.1 nM.

For `Fc1cc(F)c(F)c(-c2ccc(N[C@H]3C[C@@H]4CN(CC5CCCCC5)C[C@@H]4C3)nn2)c1` [Compound 3, (3aR,5s,6aS)-2-(cyclohexylmethyl)-N-(6-(2,3,5-trifluorophenyl)pyridazin-3-yl)octahydrocyclopenta[c]pyrrol-5-amine], the “Human M4 Emin” value was 3% and the IC50 is 57.5 nM.

As for `OC1(CN2C[C@H]3C[C@H](Nc4ccc(-c5cc(F)cc(F)c5F)nn4)C[C@H]3C2)CCCCC1` [Compound 9, 1-(((3aR,5s,6aS)-5-((6-(2,3,5-trifluorophenyl)pyridazin-3-yl)amino)hexahydrocyclopenta[c]pyrrol-2(1H)-yl)methyl)cyclohexan-1-ol], the “Human M4 Emin” value is 3% and the IC50 was 6.09 nM.

Take `O=S1(=O)CCC(CN2C[C@H]3C[C@H](Nc4ccc(-c5cc(F)cc(F)c5F)nn4)C[C@H]3C2)CC1` [Compound 69, 4-(((3aR,5s,6aS)-5-((6-(2,3,5-trifluorophenyl)pyridazin-3-yl)amino)hexahydrocyclopenta[c]pyrrol-2(1H)-yl)methyl)tetrahydro-2H-thiopyran 1,1-dioxide]: the “Human M4 Emin” value amounted to 3% and the IC50 stood at 0.9 nM.

In the case of `OC1CCCCC1N1C[C@H]2C[C@H](Nc3ccc(-c4cc(F)cc(F)c4F)nn3)C[C@H]2C1` (stereo partly drawn) [Compound 65, 2-((3aR,5s,6aS)-5-((6-(2,3,5-trifluorophenyl)pyridazin-3-yl)amino)hexahydrocyclopenta[c]pyrrol-2(1H)-yl)cyclohexan-1-ol], the “Human M4 Emin” value amounted to 6% and the IC50 came to 350 nM.

Take `OC1(CN2C[C@H]3C[C@H](Nc4ccc(-c5cc(F)cc(F)c5F)nn4)C[C@H]3C2)CCCCCC1` [Compound 62]: the “Human M4 Emin” value was 3% and the IC50 came to 3300 nM.

For the compound `OC1(CN2C[C@H]3C[C@H](Nc4ccc(-c5cc(F)cc(F)c5F)nn4)C[C@H]3C2)CCCC1` [Compound 61, 1-(((3aR,5s,6aS)-5-((6-(2,3,5-trifluorophenyl)pyridazin-3-yl)amino)hexahydrocyclopenta[c]pyrrol-2(1H)-yl)methyl)cyclopentan-1-ol], the “Human M4 Emin” value worked out at 2% and the IC50 worked out at 2.3 nM.
